# Columns and labels:
# [1] = system: morningglory; assay: Test A pre-/postemergence greenhouse test; assay type: in vivo, Ipomoea spp.; conditions: for Morningglory plant response rating: 0 to 100 scale
# In short: (§1)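 Visual injury ratings against untreated controls, taken roughly ten days after treatment in greenhouse. Plants were sprayed postemergence at one- to two-leaf stage (2–10 cm tall); at the same time, seeded loam/sand soil received a directed preemergence spray. Formulation: non-phytotoxic solvent mixture with surfactant.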
# [2] = system: redroot pigweed; assay: Test A pre-/postemergence greenhouse test; assay type: in vivo, Amaranthus retroflexus; conditions: for Pigweed plant response rating: 0 to 100 scale
# In short: as §1
# [3] = system: blackgrass; assay: Test C pre-/postemergence test; assay type: in vivo, Alopecurus myosuroides; conditions: for Plant response rating, Blackgrass: scale 0 to 100, 0 no effect, 100 complete control
# In short: (§2)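 Test chemicals were formulated with surfactant in a non-phytotoxic solvent and sprayed both on freshly planted seeds (preemergence) and on 1- to 4-leaf plants of 2–18 cm (postemergence). Flooded-paddy pots received compound directly into 3 cm of standing water, maintained for the test.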
# [4] = system: downy brome; assay: Test C pre-/postemergence test; assay type: in vivo, Bromus tectorum; conditions: for Plant response rating, Bromegrass, Downy: scale 0 to 100, 0 no effect, 100 complete control
# In short: as §2
# [5] = system: green foxtail; assay: Test C pre-/postemergence test; assay type: in vivo, Setaria viridis; conditions: for Plant response rating, Foxtail, Green: scale 0 to 100, 0 no effect, 100 complete control
# In short: as §2
# [6] = system: wild oat; assay: Test C pre-/postemergence test; assay type: in vivo, Avena fatua; conditions: for Plant response rating, Oat, Wild: scale 0 to 100, 0 no effect, 100 complete control
# In short: as §2
# [7] = system: catchweed bedstraw; assay: Test C pre-/postemergence test; assay type: in vivo, Galium aparine
# From the text: Seeds of plant species selected from blackgrass (Alopecurus myosuroides), downy brome (Bromus tectorum), green foxtail (Setaria viridis), Italian ryegrass (Lolium multiflorum), wheat (Triticum aestivum), wild oat (Avena fatua), catchweed bedstraw (Galium aparine), Russian thistle (Salsola kali), […] (Cynodon dactylon), Surinam grass (Brachiaria decumbens), cocklebur (Xanthium strumarium), corn (Zea mays), crabgrass (Digitaria sanguinalis), woolly cupgrass (Eriochloa villosa), giant foxtail (Setaria faberii), Goosegrass (Eleusin indica), johnsongrass (Sorghum halepense), kochia (Kochia scoparia), lambsquarters (Chenopodium album), morningglory (Ipomoea coccinea), eastern black nightshade (Solanum ptycanthum), yellow nutsedge (Cyperus esculentus), pigweed (Amaranthus retroflexus), common ragweed (Ambrosia elation), soybean (Glycine max), common (oilseed) sunflower (Helianthus annuus), and velvetleaf (Abutilon theophrasti) were planted and treated preemergence with test chemicals formulated in a non-phytotoxic solvent mixture which included a surfactant. At the same time, plants selected from these crop and weed species and also winter barley (Hordeum vulgare), canarygrass (Phalaris minor), and chickweed (Stellaria media) were treated with postemergence applications of some of the test chemicals formulated in the same manner. Plants ranged in height from 2 to 18 cm (1- to 4-leaf stage) for postemergence treatments. […] At time of treatment, test pots were flooded to 3 cm above the soil surface, treated by application of test compounds directly to the paddy water, and then maintained at that water depth for the duration of the test. […] A dash (-) response means no test result.
# [8] = system: bermudagrass; assay: Test C pre-/postemergence test; assay type: in vivo, Cynodon dactylon; conditions: for Plant response rating, Bermudagrass: scale 0 to 100, 0 no effect, 100 complete control
# In short: as §2
# [9] = system: cocklebur; assay: Test C pre-/postemergence test; assay type: in vivo, Xanthium strumarium; conditions: for Plant response rating, Cocklebur: scale 0 to 100, 0 no effect, 100 complete control
# In short: as §2
# [10] = system: woolly cupgrass; assay: Test C pre-/postemergence test; assay type: in vivo, Eriochloa villosa; conditions: for Plant response rating, Cupgrass, Woolly: scale 0 to 100, 0 no effect, 100 complete control
# In short: as §2
# [11] = system: kochia; assay: Test C pre-/postemergence test; assay type: in vivo, Kochia scoparia; conditions: for Plant response rating, Kochia: scale 0 to 100, 0 no effect, 100 complete control
# In short: as §2
# [12] = system: lambsquarters; assay: Test C pre-/postemergence test; assay type: in vivo, Chenopodium album; conditions: for Plant response rating, Lambsquarters: scale 0 to 100, 0 no effect, 100 complete control
# In short: as §2
# [13] = system: yellow nutsedge; assay: Test C pre-/postemergence test; assay type: in vivo, Cyperus esculentus; conditions: for Plant response rating, Nutsedge, Yellow: scale 0 to 100, 0 no effect, 100 complete control
# In short: as §2
# [14] = system: soybean; assay: Test C pre-/postemergence test; assay type: in vivo, Glycine max; conditions: for Plant response rating, Soybean: scale 0 to 100, 0 no effect, 100 complete control
# In short: as §2
# [15] = system: rice; assay: Test C flooded paddy test; assay type: in vivo, Oryza sativa; conditions: Flood
# In short: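 Greenhouse pots flooded to 3 cm above soil at time of treatment received compound via the water, which stayed at that level.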
# [16] = Postemergence, 125 g ai/ha, 0 is no effect, 100 is complete control
# [17] = Postemergence, 500 g ai/ha, 0 is no effect, 100 is complete control
# [18] = Preemergence, 125 g ai/ha, 0 no effect, 100 complete control
# [19] = Preemergence, 500 g ai/ha, 0 to 100 scale where 0 is no effect and 100 is complete control
# [20] = 31 g ai/ha, Preemergence, scale 0 to 100
# [21] = 62 g ai/ha, preemergence, scale 0 (no effect) to 100 (complete control)
# [22] = preemergence, 125 g ai/ha, scale 0 (no effect) to 100 (complete control)
smiles,measurement,setting,value
Cc1cc[n+]([O-])c(S(=O)(=O)Cc2c(C(F)(F)F)nn(C)c2OC(F)F)c1 [Compound 2],Morningglory plant response rating,[1]; [16],60
same,Morningglory plant response rating,[1]; [17],100
same,Morningglory plant response rating,[1]; [18],80
same,"Plant response rating, Morningglory",[1]; [19],90
same,Pigweed plant response rating,[2]; [16],100
same,Pigweed plant response rating,[2]; [17],100
same,Pigweed plant response rating,[2]; [18],100
same,"Plant response rating, Pigweed",[2]; [19],100
same,Blackgrass plant response rating,[3]; [20],60
same,Blackgrass plant response rating,[3]; [21],80
same,"Plant response rating (0 to 100), Blackgrass","[3]; Postemergence, 31 g ai/ha",0
same,"Plant response rating, Blackgrass","[3]; Postemergence, 62 g ai/ha",0
same,"Plant response rating, Blackgrass","[3]; Postemergence, 125 g ai/ha",0
same,"Plant response rating, Blackgrass","[3]; Postemergence, 250 g ai/ha",0
same,"Plant response rating (0 to 100), Blackgrass","[3]; Preemergence, 250 g ai/ha",100
same,Blackgrass plant response rating,[3]; [22],80
same,"Bromegrass, Downy plant response rating",[4]; [20],0
same,"Bromegrass, Downy plant response rating",[4]; [21],40
same,"Plant response rating (0 to 100), Bromegrass, Downy","[4]; Postemergence, 31 g ai/ha",0
same,"Plant response rating, Bromegrass, Downy","[4]; Postemergence, 62 g ai/ha",0
same,"Plant response rating, Bromegrass, Downy","[4]; Postemergence, 125 g ai/ha",0
same,"Plant response rating, Bromegrass, Downy","[4]; Postemergence, 250 g ai/ha",0
same,"Plant response rating (0 to 100), Bromegrass, Downy","[4]; Preemergence, 250 g ai/ha",45
same,"Bromegrass, Downy plant response rating",[4]; [22],45
same,"Foxtail, Green plant response rating",[5]; [20],100
same,"Foxtail, Green plant response rating",[5]; [21],100
same,"Plant response rating (0 to 100), Foxtail, Green","[5]; Postemergence, 31 g ai/ha",0
same,"Plant response rating, Foxtail, Green","[5]; Postemergence, 62 g ai/ha",0
same,"Plant response rating, Foxtail, Green","[5]; Postemergence, 125 g ai/ha",20
same,"Plant response rating, Foxtail, Green","[5]; Postemergence, 250 g ai/ha",50
same,"Plant response rating (0 to 100), Foxtail, Green","[5]; Preemergence, 250 g ai/ha",100
same,"Foxtail, Green plant response rating",[5]; [22],100
same,"Oat, Wild plant response rating",[6]; [20],50
same,"Oat, Wild plant response rating",[6]; [21],65
same,"Plant response rating (0 to 100), Oat, Wild","[6]; Postemergence, 31 g ai/ha",0
same,"Plant response rating, Oat, Wild","[6]; Postemergence, 62 g ai/ha",0
same,"Plant response rating, Oat, Wild","[6]; Postemergence, 125 g ai/ha",0
same,"Plant response rating, Oat, Wild","[6]; Postemergence, 250 g ai/ha",0
same,"Plant response rating (0 to 100), Oat, Wild","[6]; Preemergence, 250 g ai/ha",95
same,"Oat, Wild plant response rating",[6]; [22],70
same,Galium plant response rating,[7]; [20],85
same,Galium plant response rating,[7]; [21],95
same,"Plant response rating (0 to 100), Galium","[7]; Preemergence, 250 g ai/ha",100
same,Galium plant response rating,[7]; [22],100
same,Bermudagrass plant response rating,[8]; [20],100
same,Bermudagrass plant response rating,[8]; [21],100
same,"Plant response rating (0 to 100), Bermudagrass","[8]; Postemergence, 31 g ai/ha",0
same,"Plant response rating, Bermudagrass","[8]; Postemergence, 62 g ai/ha",0
same,"Plant response rating, Bermudagrass","[8]; Postemergence, 125 g ai/ha",0
same,"Plant response rating, Bermudagrass","[8]; Postemergence, 250 g ai/ha",40
same,"Plant response rating (0 to 100), Bermudagrass","[8]; Preemergence, 250 g ai/ha",100
same,Bermudagrass plant response rating,[8]; [22],100
same,Cocklebur plant response rating,[9]; [20],0
same,Cocklebur plant response rating,[9]; [21],0
same,"Plant response rating (0 to 100), Cocklebur","[9]; Postemergence, 31 g ai/ha",0
same,"Plant response rating, Cocklebur","[9]; Postemergence, 62 g ai/ha",0
same,"Plant response rating, Cocklebur","[9]; Postemergence, 125 g ai/ha",0
same,"Plant response rating, Cocklebur","[9]; Postemergence, 250 g ai/ha",10
same,"Plant response rating (0 to 100), Cocklebur","[9]; Preemergence, 250 g ai/ha",100
same,Cocklebur plant response rating,[9]; [22],70
same,"Cupgrass, Woolly plant response rating",[10]; [20],65
same,"Cupgrass, Woolly plant response rating",[10]; [21],90
same,"Plant response rating (0 to 100), Cupgrass, Woolly","[10]; Postemergence, 31 g ai/ha",0
same,"Plant response rating, Cupgrass, Woolly","[10]; Postemergence, 62 g ai/ha",30
same,"Plant response rating, Cupgrass, Woolly","[10]; Postemergence, 125 g ai/ha",50
same,"Plant response rating, Cupgrass, Woolly","[10]; Postemergence, 250 g ai/ha",50
same,"Plant response rating (0 to 100), Cupgrass, Woolly","[10]; Preemergence, 250 g ai/ha",100
same,"Cupgrass, Woolly plant response rating",[10]; [22],100
same,Kochia plant response rating,[11]; [20],100
same,Kochia plant response rating,[11]; [21],100
same,"Plant response rating (0 to 100), Kochia","[11]; Postemergence, 31 g ai/ha",0
same,"Plant response rating, Kochia","[11]; Postemergence, 62 g ai/ha",0
same,"Plant response rating, Kochia","[11]; Postemergence, 125 g ai/ha",5
same,"Plant response rating, Kochia","[11]; Postemergence, 250 g ai/ha",5
same,"Plant response rating (0 to 100), Kochia","[11]; Preemergence, 250 g ai/ha",100
same,Kochia plant response rating,[11]; [22],100
same,Lambsquarters plant response rating,[12]; [20],0
same,Lambsquarters plant response rating,[12]; [21],70
same,"Plant response rating (0 to 100), Lambsquarters","[12]; Postemergence, 31 g ai/ha",0
same,"Plant response rating, Lambsquarters","[12]; Postemergence, 62 g ai/ha",0
same,"Plant response rating, Lambsquarters","[12]; Postemergence, 125 g ai/ha",0
same,"Plant response rating, Lambsquarters","[12]; Postemergence, 250 g ai/ha",0
same,"Plant response rating (0 to 100), Lambsquarters","[12]; Preemergence, 250 g ai/ha",100
same,Lambsquarters plant response rating,[12]; [22],100
same,"Nutsedge, Yellow plant response rating",[13]; [20],0
same,"Nutsedge, Yellow plant response rating",[13]; [21],95
same,"Plant response rating (0 to 100), Nutsedge, Yellow","[13]; Postemergence, 31 g ai/ha",0
same,"Plant response rating, Nutsedge, Yellow","[13]; Postemergence, 62 g ai/ha",0
same,"Plant response rating, Nutsedge, Yellow","[13]; Postemergence, 125 g ai/ha",0
same,"Plant response rating, Nutsedge, Yellow","[13]; Postemergence, 250 g ai/ha",0
same,"Plant response rating (0 to 100), Nutsedge, Yellow","[13]; Preemergence, 250 g ai/ha",100
same,"Nutsedge, Yellow plant response rating",[13]; [22],95
same,"Plant response rating (0 to 100), Soybean","[14]; Postemergence, 31 g ai/ha",40
same,"Plant response rating (0 to 100), Soybean","[14]; Postemergence, 62 g ai/ha",50
same,"Plant response rating, Soybean","[14]; Postemergence, 125 g ai/ha",50
same,"Plant response rating, Soybean","[14]; Postemergence, 250 g ai/ha",50
same,"Plant response rating (0 to 100), Soybean","[14]; Preemergence, 250 g ai/ha",70
same,Soybean plant response rating,[14]; [22],50
same,"Plant response rating, Rice","[15]; 31 g ai/ha, scale 0 to 100 (0 no effect, 100 complete control)",0
same,"Plant response rating, Rice","[15]; 62 g ai/ha, scale 0 to 100, 0 no effect, 100 complete control, 13 to 15 days",10
same,"Plant response rating, Rice","[15]; 125 g ai/ha, scale 0 to 100, 0 no effect, 100 complete control, 13 to 15 days",45
same,"Plant response rating, Rice","[15]; 250 g ai/ha, scale 0 to 100 (0 no effect, 100 complete control)",70

# From patent US20100298141A1, “SUBSTITUTED PYRIDINE N-OXIDE HERBICIDES” (E. I. DU PONT DE NEMOURS AND COMPANY, priority 2007, published 2010)
